Reference: the NIST ThermoML archive (doi:10.1016/j.fluid.2014.09.014)
± gives the expanded uncertainty stated by the source.

Assay: refractive index (other wavelength) (dimensionless); xn = mol fraction of the nth substance listed
Conditions: 101 kPa, Liquid, Standard Abbe refractometry

SMILES: CC(C)OC(C)C [diisopropyl ether] + CC(C)O
- refractive index (298.15 K, Wavelength=644 nm, x1 = 0.9547): 1.3643 ± 0.00043
- refractive index (298.15 K, Wavelength=644 nm, x1 = 0.973): 1.364 ± 0.00043
- refractive index (298.15 K, Wavelength=644 nm, x1 = 0.9771): 1.36393 ± 0.00043
- refractive index (298.15 K, Wavelength=644 nm, x1 = 1): 1.36373 ± 0.00043
- refractive index (298.15 K, Wavelength=706.5 nm, x1 = 0.0277): 1.37183 ± 0.00032
- refractive index (298.15 K, Wavelength=706.5 nm, x1 = 0.0507): 1.37174 ± 0.00032
- refractive index (298.15 K, Wavelength=706.5 nm, x1 = 0.051): 1.37179 ± 0.00032
- refractive index (298.15 K, Wavelength=706.5 nm, x1 = 0.0717): 1.37152 ± 0.00032
- refractive index (298.15 K, Wavelength=706.5 nm, x1 = 0.1528): 1.37093 ± 0.00032
- refractive index (298.15 K, Wavelength=706.5 nm, x1 = 0.1553): 1.37093 ± 0.00032
- refractive index (298.15 K, Wavelength=706.5 nm, x1 = 0.1938): 1.37068 ± 0.00033
- refractive index (298.15 K, Wavelength=706.5 nm, x1 = 0.2029): 1.37039 ± 0.00033
- refractive index (298.15 K, Wavelength=706.5 nm, x1 = 0.245): 1.37002 ± 0.00033
- refractive index (298.15 K, Wavelength=706.5 nm, x1 = 0.297): 1.36955 ± 0.00034
- refractive index (298.15 K, Wavelength=706.5 nm, x1 = 0.2973): 1.3698 ± 0.00034
- refractive index (298.15 K, Wavelength=706.5 nm, x1 = 0.3068): 1.36933 ± 0.00034
- refractive index (298.15 K, Wavelength=706.5 nm, x1 = 0.398): 1.36819 ± 0.00035
- refractive index (298.15 K, Wavelength=706.5 nm, x1 = 0.4609): 1.36758 ± 0.00035
- refractive index (298.15 K, Wavelength=706.5 nm, x1 = 0.5434): 1.36678 ± 0.00036
- refractive index (298.15 K, Wavelength=706.5 nm, x1 = 0.6032): 1.36623 ± 0.00037
- refractive index (298.15 K, Wavelength=706.5 nm, x1 = 0.6371): 1.36587 ± 0.00038
- refractive index (298.15 K, Wavelength=706.5 nm, x1 = 0.701): 1.36523 ± 0.00039
- refractive index (298.15 K, Wavelength=706.5 nm, x1 = 0.754): 1.36485 ± 0.00039
- refractive index (298.15 K, Wavelength=706.5 nm, x1 = 0.791): 1.3645 ± 0.0004
- refractive index (298.15 K, Wavelength=706.5 nm, x1 = 0.8296): 1.36417 ± 0.00041
- refractive index (298.15 K, Wavelength=706.5 nm, x1 = 0.8864): 1.36394 ± 0.00042
- refractive index (298.15 K, Wavelength=706.5 nm, x1 = 0.8903): 1.36354 ± 0.00042
- refractive index (298.15 K, Wavelength=706.5 nm, x1 = 0.9113): 1.36332 ± 0.00042
- refractive index (298.15 K, Wavelength=706.5 nm, x1 = 0.9547): 1.36289 ± 0.00043
- refractive index (298.15 K, Wavelength=706.5 nm, x1 = 0.973): 1.36258 ± 0.00043
- refractive index (298.15 K, Wavelength=706.5 nm, x1 = 0.9771): 1.36281 ± 0.00043
- refractive index (298.15 K, Wavelength=706.5 nm, x1 = 1): 1.36237 ± 0.00043
- refractive index (303.15 K, Wavelength=404.7 nm, x1 = 0.0277): 1.38362 ± 0.00032
- refractive index (303.15 K, Wavelength=404.7 nm, x1 = 0.0507): 1.38359 ± 0.00032
- refractive index (303.15 K, Wavelength=404.7 nm, x1 = 0.051): 1.38351 ± 0.00032
- refractive index (303.15 K, Wavelength=404.7 nm, x1 = 0.0717): 1.38322 ± 0.00032
- refractive index (303.15 K, Wavelength=404.7 nm, x1 = 0.1528): 1.38258 ± 0.00032
- refractive index (303.15 K, Wavelength=404.7 nm, x1 = 0.1553): 1.38258 ± 0.00032
- refractive index (303.15 K, Wavelength=404.7 nm, x1 = 0.1938): 1.38229 ± 0.00033
- refractive index (303.15 K, Wavelength=404.7 nm, x1 = 0.2029): 1.38193 ± 0.00033
- refractive index (303.15 K, Wavelength=404.7 nm, x1 = 0.245): 1.38148 ± 0.00033
- refractive index (303.15 K, Wavelength=404.7 nm, x1 = 0.297): 1.38091 ± 0.00034
- refractive index (303.15 K, Wavelength=404.7 nm, x1 = 0.2973): 1.38111 ± 0.00034
- refractive index (303.15 K, Wavelength=404.7 nm, x1 = 0.3068): 1.38076 ± 0.00034
- refractive index (303.15 K, Wavelength=404.7 nm, x1 = 0.398): 1.37951 ± 0.00035
- refractive index (303.15 K, Wavelength=404.7 nm, x1 = 0.4609): 1.37885 ± 0.00035
- refractive index (303.15 K, Wavelength=404.7 nm, x1 = 0.5434): 1.37802 ± 0.00036
- refractive index (303.15 K, Wavelength=404.7 nm, x1 = 0.6032): 1.37738 ± 0.00037
- refractive index (303.15 K, Wavelength=404.7 nm, x1 = 0.6371): 1.37701 ± 0.00038
- refractive index (303.15 K, Wavelength=404.7 nm, x1 = 0.701): 1.37631 ± 0.00039
- refractive index (303.15 K, Wavelength=404.7 nm, x1 = 0.754): 1.37593 ± 0.00039
- refractive index (303.15 K, Wavelength=404.7 nm, x1 = 0.791): 1.37553 ± 0.0004
- refractive index (303.15 K, Wavelength=404.7 nm, x1 = 0.8296): 1.37518 ± 0.00041
- refractive index (303.15 K, Wavelength=404.7 nm, x1 = 0.8864): 1.37495 ± 0.00042
- refractive index (303.15 K, Wavelength=404.7 nm, x1 = 0.8903): 1.37451 ± 0.00042
- refractive index (303.15 K, Wavelength=404.7 nm, x1 = 0.9113): 1.37428 ± 0.00042
- refractive index (303.15 K, Wavelength=404.7 nm, x1 = 0.9547): 1.37382 ± 0.00043
- refractive index (303.15 K, Wavelength=404.7 nm, x1 = 0.973): 1.37347 ± 0.00043
- refractive index (303.15 K, Wavelength=404.7 nm, x1 = 0.9771): 1.37338 ± 0.00043
- refractive index (303.15 K, Wavelength=404.7 nm, x1 = 1): 1.37321 ± 0.00044
- refractive index (303.15 K, Wavelength=435.8 nm, x1 = 0.0277): 1.3806 ± 0.00032
- refractive index (303.15 K, Wavelength=435.8 nm, x1 = 0.0507): 1.38056 ± 0.00032
- refractive index (303.15 K, Wavelength=435.8 nm, x1 = 0.051): 1.38049 ± 0.00032
- refractive index (303.15 K, Wavelength=435.8 nm, x1 = 0.0717): 1.3802 ± 0.00032
- refractive index (303.15 K, Wavelength=435.8 nm, x1 = 0.1528): 1.37956 ± 0.00032
- refractive index (303.15 K, Wavelength=435.8 nm, x1 = 0.1553): 1.37956 ± 0.00032
- refractive index (303.15 K, Wavelength=435.8 nm, x1 = 0.1938): 1.37926 ± 0.00033
- refractive index (303.15 K, Wavelength=435.8 nm, x1 = 0.2029): 1.37892 ± 0.00033
- refractive index (303.15 K, Wavelength=435.8 nm, x1 = 0.245): 1.37846 ± 0.00033
- refractive index (303.15 K, Wavelength=435.8 nm, x1 = 0.297): 1.37798 ± 0.00034
- refractive index (303.15 K, Wavelength=435.8 nm, x1 = 0.2973): 1.37809 ± 0.00034
- refractive index (303.15 K, Wavelength=435.8 nm, x1 = 0.3068): 1.37775 ± 0.00034
- refractive index (303.15 K, Wavelength=435.8 nm, x1 = 0.398): 1.3765 ± 0.00035
- refractive index (303.15 K, Wavelength=435.8 nm, x1 = 0.4609): 1.37585 ± 0.00035
- refractive index (303.15 K, Wavelength=435.8 nm, x1 = 0.5434): 1.37503 ± 0.00036
- refractive index (303.15 K, Wavelength=435.8 nm, x1 = 0.6032): 1.3744 ± 0.00037
- refractive index (303.15 K, Wavelength=435.8 nm, x1 = 0.6371): 1.37401 ± 0.00038
- refractive index (303.15 K, Wavelength=435.8 nm, x1 = 0.701): 1.37333 ± 0.00039
- refractive index (303.15 K, Wavelength=435.8 nm, x1 = 0.754): 1.37295 ± 0.00039
- refractive index (303.15 K, Wavelength=435.8 nm, x1 = 0.791): 1.37254 ± 0.0004
- refractive index (303.15 K, Wavelength=435.8 nm, x1 = 0.8296): 1.37221 ± 0.00041
- refractive index (303.15 K, Wavelength=435.8 nm, x1 = 0.8864): 1.37197 ± 0.00042
- refractive index (303.15 K, Wavelength=435.8 nm, x1 = 0.8903): 1.37154 ± 0.00042
- refractive index (303.15 K, Wavelength=435.8 nm, x1 = 0.9113): 1.37131 ± 0.00042
- refractive index (303.15 K, Wavelength=435.8 nm, x1 = 0.9547): 1.37084 ± 0.00043
- refractive index (303.15 K, Wavelength=435.8 nm, x1 = 0.973): 1.3705 ± 0.00043
- refractive index (303.15 K, Wavelength=435.8 nm, x1 = 0.9771): 1.3704 ± 0.00043
- refractive index (303.15 K, Wavelength=435.8 nm, x1 = 1): 1.37022 ± 0.00044
- refractive index (303.15 K, Wavelength=486.1 nm, x1 = 0.0277): 1.37718 ± 0.00032
- refractive index (303.15 K, Wavelength=486.1 nm, x1 = 0.0507): 1.37714 ± 0.00032
- refractive index (303.15 K, Wavelength=486.1 nm, x1 = 0.051): 1.37707 ± 0.00032
- refractive index (303.15 K, Wavelength=486.1 nm, x1 = 0.0717): 1.37678 ± 0.00032
- refractive index (303.15 K, Wavelength=486.1 nm, x1 = 0.1528): 1.37614 ± 0.00032
- refractive index (303.15 K, Wavelength=486.1 nm, x1 = 0.1553): 1.37614 ± 0.00032
- refractive index (303.15 K, Wavelength=486.1 nm, x1 = 0.1938): 1.37584 ± 0.00033
